According to patent publication US8143408B2, “N-(8-heteroaryltetrahydronaphtalene-2yl) or N-(5-heteroarylchromane-3-yl) carboxamide derivatives for the treatment of pain” (AstraZeneca AB, priority 2007, dated 2012):
pIC50: −log10 of the molar value.

Target: T1, Nav1.7 voltage-gated sodium channel (Homo sapiens, UniProt Q15858)
T1 construct: Gene(s) encoding the full-length protein of the voltage-gated sodium channel of interest are cloned and expressed; expressed in transfected cells
Assay: Whole-cell voltage clamp electrophysiology assay
Format: cell-based
Details: cells stably expressing the voltage-gated sodium channel of interest
Method in brief: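 Cells expressing full-length channel, exposed to drug by integrated pipetting on automated patch-clamp platforms or by microperfusion in conventional whole-cell patch clamp. Channels activated by a voltage protocol depolarising from a defined holding potential; buffers per platform manufacturer.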

T1 sequence (Q15858 whole entry): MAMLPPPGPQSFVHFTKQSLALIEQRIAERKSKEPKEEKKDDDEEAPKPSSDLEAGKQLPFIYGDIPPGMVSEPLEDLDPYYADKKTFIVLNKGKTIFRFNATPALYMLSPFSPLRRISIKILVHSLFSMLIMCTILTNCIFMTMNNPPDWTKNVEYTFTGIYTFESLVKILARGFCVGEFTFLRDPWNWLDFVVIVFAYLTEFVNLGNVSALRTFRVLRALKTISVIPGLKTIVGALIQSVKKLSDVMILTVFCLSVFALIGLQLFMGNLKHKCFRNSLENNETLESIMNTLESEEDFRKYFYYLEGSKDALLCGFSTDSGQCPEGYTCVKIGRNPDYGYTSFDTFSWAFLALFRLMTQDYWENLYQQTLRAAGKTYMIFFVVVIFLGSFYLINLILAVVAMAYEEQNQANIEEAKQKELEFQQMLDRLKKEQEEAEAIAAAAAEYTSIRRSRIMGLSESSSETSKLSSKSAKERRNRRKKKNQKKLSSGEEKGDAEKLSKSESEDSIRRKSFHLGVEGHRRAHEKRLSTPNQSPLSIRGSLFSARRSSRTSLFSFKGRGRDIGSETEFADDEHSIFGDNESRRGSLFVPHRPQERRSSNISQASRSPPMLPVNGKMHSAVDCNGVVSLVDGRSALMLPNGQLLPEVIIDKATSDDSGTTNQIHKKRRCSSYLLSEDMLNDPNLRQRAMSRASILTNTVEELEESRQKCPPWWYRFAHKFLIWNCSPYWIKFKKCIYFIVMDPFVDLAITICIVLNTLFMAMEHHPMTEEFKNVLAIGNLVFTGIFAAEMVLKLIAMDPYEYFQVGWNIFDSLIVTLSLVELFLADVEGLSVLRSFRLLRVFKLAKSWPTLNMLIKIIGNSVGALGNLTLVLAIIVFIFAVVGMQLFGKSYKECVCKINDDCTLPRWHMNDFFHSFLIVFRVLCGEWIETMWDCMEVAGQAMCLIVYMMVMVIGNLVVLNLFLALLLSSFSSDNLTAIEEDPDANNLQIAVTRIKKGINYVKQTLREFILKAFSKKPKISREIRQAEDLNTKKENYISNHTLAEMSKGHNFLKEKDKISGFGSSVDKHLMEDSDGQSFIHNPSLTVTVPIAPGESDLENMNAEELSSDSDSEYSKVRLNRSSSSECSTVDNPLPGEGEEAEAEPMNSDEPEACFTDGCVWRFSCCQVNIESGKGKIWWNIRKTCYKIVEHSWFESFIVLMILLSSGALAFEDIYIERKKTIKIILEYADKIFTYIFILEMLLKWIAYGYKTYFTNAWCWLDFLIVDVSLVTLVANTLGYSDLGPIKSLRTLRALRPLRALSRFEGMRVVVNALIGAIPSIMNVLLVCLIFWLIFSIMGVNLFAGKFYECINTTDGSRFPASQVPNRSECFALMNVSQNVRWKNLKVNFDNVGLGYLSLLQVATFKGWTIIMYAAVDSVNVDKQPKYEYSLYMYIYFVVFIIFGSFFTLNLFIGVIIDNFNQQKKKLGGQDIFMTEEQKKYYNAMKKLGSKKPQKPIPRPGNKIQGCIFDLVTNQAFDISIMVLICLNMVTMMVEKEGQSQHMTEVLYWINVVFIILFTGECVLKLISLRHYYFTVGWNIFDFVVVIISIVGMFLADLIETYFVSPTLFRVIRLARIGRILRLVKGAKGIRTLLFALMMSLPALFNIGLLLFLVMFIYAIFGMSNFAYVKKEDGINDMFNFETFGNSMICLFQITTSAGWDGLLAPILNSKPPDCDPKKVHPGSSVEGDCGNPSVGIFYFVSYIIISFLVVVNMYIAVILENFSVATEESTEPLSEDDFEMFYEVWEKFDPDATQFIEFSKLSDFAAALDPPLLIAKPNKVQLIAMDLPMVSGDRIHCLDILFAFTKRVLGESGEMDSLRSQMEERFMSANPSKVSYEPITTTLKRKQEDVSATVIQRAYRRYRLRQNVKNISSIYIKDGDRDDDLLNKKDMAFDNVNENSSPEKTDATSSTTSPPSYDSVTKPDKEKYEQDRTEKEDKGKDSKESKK

pIC50 | Compound
7.10 | O=C(N[C@@H]1COc2cccc(-c3cccnc3)c2C1)c1ccc(C(=O)NCCC(F)(F)F)nc1 [Example 132, N^5-[(3S)-5-pyridin-3-yl-3,4-dihydro-2H-chromen-3-yl]-N^2-(3,3,3-trifluoropropyl)pyridine-2,5-dicarboxamide]
6.10 | O=C(N[C@@H]1COc2cccc(-c3cccnc3)c2C1)c1cnc(OC2CCOCC2)cn1 [Example 133, N-[(3S)-5-pyridin-3-yl-3,4-dihydro-2H-chromen-3-yl]-5-(tetrahydro-2H-pyran-4-yloxy)pyrazine-2-carboxamide]
6.50 | COc1ccc(-c2cccc3c2C[C@H](NC(=O)c2ccc(OC4CCOCC4)nc2)CO3)cn1 [Example 134, N-[(3S)-5-(6-methoxypyridin-3-yl)-3,4-dihydro-2H-chromen-3-yl]-6-(tetrahydro-2H-pyran-4-yloxy)nicotinamide]
6.50 | COc1ccc(-c2cccc3c2C[C@H](NC(=O)c2ccc(OC4CCCOC4)nc2)CO3)cn1 (stereo partly drawn) [Example 135, N-[(3S)-5-(6-methoxypyridin-3-yl)-3,4-dihydro-2H-chromen-3-yl]-6-(tetrahydro-2H-pyran-3-yloxy)nicotinamide]
6.50 | O=C(N[C@@H]1COc2cccc(-c3ccncc3)c2C1)c1ccc(OC2CCCOC2)nc1 (stereo partly drawn) [Example 136, N-[(3S)-5-pyridin-4-yl-3,4-dihydro-2H-chromen-3-yl]-6-(tetrahydro-2H-pyran-3-yloxy)nicotinamide]
6.10 | COCCOc1ccc(C(=O)N[C@@H]2COc3cccc(-c4cccnc4)c3C2)cn1 [Example 137, 6-(2-methoxyethoxy)-N-[(3S)-5-pyridin-3-yl-3,4-dihydro-2H-chromen-3-yl]nicotinamide]
5.50 | COCCn1nc(C)c(C(=O)N[C@@H]2COc3cccc(-c4cccnc4)c3C2)n1 [Example 138, 2-(2-methoxyethyl)-5-methyl-N-[(3S)-5-pyridin-3-yl-3,4-dihydro-2H-chromen-3-yl]-2H-1,2,3-triazole-4-carboxamide]
5.80 | O=C(N[C@@H]1COc2cccc(-c3cccnc3)c2C1)c1ccc(OCC2CCO2)nc1 (stereo partly drawn) [Example 139, 6-(oxetan-2-ylmethoxy)-N-[(3S)-5-pyridin-3-yl-3,4-dihydro-2H-chromen-3-yl]nicotinamide]
6.20 | COCCOc1ccc(C(=O)N[C@@H]2COc3cccc(-c4ccnc(OC)c4)c3C2)cn1 [Example 140, 6-(2-methoxyethoxy)-N-[(3S)-5-(2-methoxypyridin-4-yl)-3,4-dihydro-2H-chromen-3-yl]nicotinamide]
5.40 | COCCOc1ccc(C(=O)N[C@@H]2COc3cccc(-c4cnc(C)nc4)c3C2)cn1 [Example 141, 6-(2-methoxyethoxy)-N-[(3S)-5-(2-methylpyrimidin-5-yl)-3,4-dihydro-2H-chromen-3-yl]nicotinamide]
5.50 | COCCOc1ccc(C(=O)N[C@@H]2COc3cccc(-c4ccncc4C)c3C2)cn1 [Example 142, 6-(2-methoxyethoxy)-N-[(3S)-5-(3-methylpyridin-4-yl)-3,4-dihydro-2H-chromen-3-yl]nicotinamide]
5.80 | COCCOc1ccc(C(=O)N[C@@H]2COc3cccc(-c4ccc(F)nc4)c3C2)cn1 [Example 143, N-[(3S)-5-(6-fluoropyridin-3-yl)-3,4-dihydro-2H-chromen-3-yl]-6-(2-methoxyethoxy)nicotinamide]
5.50 | COCCOc1ccc(C(=O)N[C@@H]2CCc3cccc(-c4cccnc4F)c3C2)cn1 [Example 144, N-[(2R)-8-(2-fluoropyridin-3-yl)-1,2,3,4-tetrahydronaphthalen-2-yl]-6-(2-methoxyethoxy)nicotinamide]
6.70 | O=C(N[C@@H]1CCc2cccc(-c3cccnc3F)c2C1)c1ccc(OC2CCOCC2)nc1 [Example 145, N-[(2R)-8-(2-fluoropyridin-3-yl)-1,2,3,4-tetrahydronaphthalen-2-yl]-6-(tetrahydro-2H-pyran-4-yloxy)nicotinamide]
5.10 | O=C(N[C@@H]1CCc2cccc(-c3ccnnc3)c2C1)c1ccc(OC2CCCOC2)nc1 (stereo partly drawn) [Example 146, N-[(2R)-8-pyridazin-4-yl-1,2,3,4-tetrahydronaphthalen-2-yl]-6-(tetrahydro-2H-pyran-3-yloxy)nicotinamide]
5.80 | Cc1ccc(-c2cccc3c2C[C@H](NC(=O)c2cnc(OC4CCCOC4)nc2)CC3)cn1 (stereo partly drawn) [Example 147, N-[(2R)-8-(6-methylpyridin-3-yl)-1,2,3,4-tetrahydronaphthalen-2-yl]-2-(tetrahydro-2H-pyran-3-yloxy)pyrimidine-5-carboxamide]
6.10 | CCCCn1ccc(C(=O)N[C@@H]2COc3cccc(-c4cnc(OC)c(F)c4)c3C2)cc1=O [Example 148, 1-butyl-N-[(3S)-5-(5-fluoro-6-methoxypyridin-3-yl)-3,4-dihydro-2H-chromen-3-yl]-2-oxo-1,2-dihydropyridine-4-carboxamide]

pIC50 | Compound
5.20 | COc1ncc(-c2cccc3c2C[C@H](NC(=O)c2cnc(OC4CCOC4)nc2)CO3)cc1F (stereo partly drawn) [Example 149, N-[(3S)-5-(5-fluoro-6-methoxypyridin-3-yl)-3,4-dihydro-2H-chromen-3-yl]-2-(tetrahydrofuran-3-yloxy)pyrimidine-5-carboxamide]
6.00 | CCCCn1ccc(C(=O)N[C@@H]2COc3cccc(-c4cnc(OC)nc4)c3C2)cc1=O [Example 150, 1-butyl-N-[(3S)-5-(2-methoxypyrimidin-5-yl)-3,4-dihydro-2H-chromen-3-yl]-2-oxo-1,2-dihydropyridine-4-carboxamide]
6.60 | Cc1cc(-c2cccc3c2C[C@H](NC(=O)c2ccc(OC4CCCOC4)nc2)CO3)cnc1F (stereo partly drawn) [Example 151, N-[(3S)-5-(6-fluoro-5-methylpyridin-3-yl)-3,4-dihydro-2H-chromen-3-yl]-6-(tetrahydro-2H-pyran-3-yloxy)nicotinamide]
5.90 | CCCCn1ccc(C(=O)N[C@@H]2COc3cccc(-c4cnc(F)c(C)c4)c3C2)cc1=O [Example 152, 1-butyl-N-[(3S)-5-(6-fluoro-5-methylpyridin-3-yl)-3,4-dihydro-2H-chromen-3-yl]-2-oxo-1,2-dihydropyridine-4-carboxamide]
6.20 | Cc1cc(-c2cccc3c2C[C@H](NC(=O)c2cnc(OC4CCCOC4)nc2)CO3)cnc1F (stereo partly drawn) [Example 153, N-[(3S)-5-(6-fluoro-5-methylpyridin-3-yl)-3,4-dihydro-2H-chromen-3-yl]-2-(tetrahydro-2H-pyran-3-yloxy)pyrimidine-5-carboxamide]
5.20 | COc1ncc(-c2cccc3c2C[C@@H](NC(=O)c2ccc(OC4CCOCC4)nc2)CC3)cn1 [Example 154, N-[(2S)-8-(2-methoxypyrimidin-5-yl)-1,2,3,4-tetrahydronaphthalen-2-yl]-6-(tetrahydro-2H-pyran-4-yloxy)nicotinamide]
5.90 | Cc1ncc(-c2cccc3c2C[C@H](NC(=O)c2ccc(OC4CCOCC4)nc2)CO3)cn1 [Example 155, N-[(3S)-5-(2-methylpyrimidin-5-yl)-3,4-dihydro-2H-chromen-3-yl]-6-(tetrahydro-2H-pyran-4-yloxy)nicotinamide]
5.70 | COc1ncc(-c2cccc3c2C[C@H](NC(=O)c2ccc(OC4CCOCC4)nc2)CC3)cn1 [Example 156, N-[(2R)-8-(2-methoxypyrimidin-5-yl)-1,2,3,4-tetrahydronaphthalen-2-yl]-6-(tetrahydro-2H-pyran-4-yloxy)nicotinamide]
6.00 | COc1ncc(-c2cccc3c2C[C@H](NC(=O)c2ccc(OC4CCCOC4)nc2)CO3)cn1 (stereo partly drawn) [Example 157, N-[(3S)-5-(2-methoxypyrimidin-5-yl)-3,4-dihydro-2H-chromen-3-yl]-6-(tetrahydro-2H-pyran-3-yloxy)nicotinamide]
5.40 | COc1ncc(-c2cccc3c2C[C@H](NC(=O)c2ccc(OC4CCOC4)nc2)CO3)cn1 (stereo partly drawn) [Example 158, N-[(3S)-5-(2-methoxypyrimidin-5-yl)-3,4-dihydro-2H-chromen-3-yl]-6-(tetrahydrofuran-3-yloxy)nicotinamide]
5.20 | Cc1ncc(-c2cccc3c2C[C@H](NC(=O)c2ccc(OC4CCOC4)nc2)CC3)cn1 (stereo partly drawn) [Example 159, N-[(2R)-8-(2-methylpyrimidin-5-yl)-1,2,3,4-tetrahydronaphthalen-2-yl]-6-(tetrahydrofuran-3-yloxy)nicotinamide]
5.50 | Cc1ncc(-c2cccc3c2C[C@H](NC(=O)c2ccc(OC4CCCOC4)nc2)CC3)cn1 (stereo partly drawn) [Example 160, N-[(2R)-8-(2-methylpyrimidin-5-yl)-1,2,3,4-tetrahydronaphthalen-2-yl]-6-(tetrahydro-2H-pyran-3-yloxy)nicotinamide]
5.10 | Cc1ncc(-c2cccc3c2C[C@H](NC(=O)c2ccc(OCC4CCCO4)nc2)CC3)cn1 (stereo partly drawn) [Example 161, N-[(2R)-8-(2-methylpyrimidin-5-yl)-1,2,3,4-tetrahydronaphthalen-2-yl]-6-(tetrahydrofuran-2-ylmethoxy)nicotinamide]
6.30 | COc1ncc(-c2cccc3c2C[C@H](NC(=O)c2ccc(OCCOCC(F)(F)F)nc2)CC3)cn1 [Example 162, N-[(2R)-8-(2-methoxypyrimidin-5-yl)-1,2,3,4-tetrahydronaphthalen-2-yl]-6-[2-(2,2,2-trifluoroethoxy)ethoxy]nicotinamide]
7.40 | COc1ncc(-c2cccc3c2C[C@H](NC(=O)c2ccc(OCCOCC(F)(F)F)nc2)CO3)cn1 [Example 163, N-[(3S)-5-(2-methoxypyrimidin-5-yl)-3,4-dihydro-2H-chromen-3-yl]-6-[2-(2,2,2-trifluoroethoxy)ethoxy]nicotinamide]
6.00 | O=C(N[C@@H]1CCc2cccc(-c3cccnc3F)c2C1)c1ccc(OCC2COCCO2)nc1 (stereo partly drawn) [Example 164, 6-(1,4-dioxan-2-ylmethoxy)-N-[(2R)-8-(2-fluoropyridin-3-yl)-1,2,3,4-tetrahydronaphthalen-2-yl]nicotinamide]
6.80 | COc1cc(-c2cccc3c2C[C@H](NC(=O)c2ccc(OCC4COCCO4)nc2)CO3)ccn1 (stereo partly drawn) [Example 165, 6-(1,4-dioxan-2-ylmethoxy)-N-[(3S)-5-(2-methoxypyridin-4-yl)-3,4-dihydro-2H-chromen-3-yl]nicotinamide]
